Patent US20260001928A1 (CORTERIA PHARMACEUTICALS, priority 2022, published 2026)
pEC50: −log10 of the molar value. *1 amine or outer side, *2 acyl side, *3 side chain or, on linkers, in order; H or OH if unused. Where a SMILES comes first, the peptide text is derived from it. Side-chain parts run from the residue outwards. [ ]: non-standard residue; d: D form. The star is where a group is joined. C18 diacid = O=C(O)CCCCCCCCCCCCCCCCC(=O)*; C16 diacid = O=C(O)CCCCCCCCCCCCCCC(=O)*; γGlu = O=C(O)[C@H](CCC(=O)[*:2])N[*:1]; C14 diacid = O=C(O)CCCCCCCCCCCCC(=O)*; NMeI = CC[C@H](C)[C@H](NC)C(=O)O; αMeK = C[C@](N)(CCCCN)C(=O)O; Pentanoyl = CCCCC(=O)*; AEEA = NCCOCCOCC(=O)O; Aib = CC(C)(N)C(=O)O

Tests used:
CFR1R receptor = target: T1, CFR1R receptor (Homo sapiens, UniProt P34998); experiment: Activity at anti-target CFR1R receptor, cAMP assay in CRF1R-overexpression CHO-K1 cells; format: cell-based; conditions: 100% = Sauvagine at 100 nM; for pEC50: cAMP
T1 construct: host or cells: CHO-K1 (clone 2)
T1 sequence (P34998 24-415): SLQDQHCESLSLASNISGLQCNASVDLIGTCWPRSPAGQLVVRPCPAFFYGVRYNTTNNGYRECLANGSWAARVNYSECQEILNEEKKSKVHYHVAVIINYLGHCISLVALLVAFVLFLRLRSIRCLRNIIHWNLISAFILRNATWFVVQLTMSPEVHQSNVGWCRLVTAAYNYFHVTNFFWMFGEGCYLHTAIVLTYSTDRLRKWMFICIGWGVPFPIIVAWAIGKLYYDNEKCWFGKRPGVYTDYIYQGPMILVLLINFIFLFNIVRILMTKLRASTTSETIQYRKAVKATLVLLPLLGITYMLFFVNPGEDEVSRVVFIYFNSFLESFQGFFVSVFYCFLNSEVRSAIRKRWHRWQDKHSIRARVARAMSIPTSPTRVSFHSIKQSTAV
In short: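 Uses frozen stocks of CHO-K1 clone 2 cells overexpressing human CRF1R, plated at 4000 cells/well final, with cAMP measured by the same protocol as the TeloHAEC line. Full-activation control: 100 nM Sauvagine.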

human CRF2a receptor = target: T2, human CRF2a receptor (Homo sapiens, UniProt Q13324); experiment: Activity at human CRF2a receptor, cAMP functional assay in TeloHEAC cells; format: cell-based; conditions: TeloHEAC cells stably expressing human CRF2a receptor, relative to urocortin 2 (100 nM = 100%)
T2 construct: expressed in transfected cells; host or cells: TeloHEAC cells
T2 sequence (Q13324 1-411): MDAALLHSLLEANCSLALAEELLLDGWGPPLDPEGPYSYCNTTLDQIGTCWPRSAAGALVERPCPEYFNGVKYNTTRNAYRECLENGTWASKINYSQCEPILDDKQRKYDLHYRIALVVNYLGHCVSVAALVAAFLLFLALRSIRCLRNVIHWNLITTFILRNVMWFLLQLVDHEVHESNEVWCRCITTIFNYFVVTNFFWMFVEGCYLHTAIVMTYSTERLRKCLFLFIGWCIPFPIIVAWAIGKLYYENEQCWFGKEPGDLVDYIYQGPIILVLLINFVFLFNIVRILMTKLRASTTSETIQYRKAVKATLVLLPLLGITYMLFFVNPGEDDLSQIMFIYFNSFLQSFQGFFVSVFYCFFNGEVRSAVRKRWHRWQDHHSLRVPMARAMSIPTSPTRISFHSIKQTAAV
In short: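 cAMP accumulation was measured by HTRF 665/620 nm ratio after 30 min at 37° C compound exposure (16 twofold dilutions) of CRF2a-expressing TeloHEAC cells, 10000/well, in HEPES-buffered HBSS plus IBMX. Activity was normalised to urocortin 2 at 100 nM (100%), and EC50 was the concentration giving half-maximal activation.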

Structure (SMILES) | Emax (% I) (CFR1R receptor) | pEC50 (CFR1R receptor) | pEC50 (human CRF2a receptor)
CC[C@H](C)[C@H](NC(C)=O)C(=O)N[C@H](C(=O)N[C@@H](CC(C)C)C(=O)N[C@@H](CO)C(=O)N[C@@H](CC(C)C)C(=O)N[C@@H](CC(=O)O)C(=O)N[C@@H](C(=O)N1CCC[C@H]1C(=O)N[C@H](C(=O)N[C@@H](CCCCN)C(=O)N[C@@H](CC(C)C)C(=O)N[C@@H](CCCCNC(=O)COCCOCCNC(=O)COCCOCCNC(=O)CC[C@H](NC(=O)CCCCCCCCCCCCCCCCC(=O)O)C(=O)O)C(=O)N[C@@H](CCCCN)C(=O)N[C@H](C(=O)N[C@@H](CC(C)C)C(=O)N[C@@H](CC(C)C)C(=O)N[C@@H](CCC(=O)O)C(=O)N[C@@H](CCC(N)=O)C(=O)N[C@@H](CCC(=O)O)C(=O)N[C@@H](CCCCN)C(=O)N[C@@H](CCC(N)=O)C(=O)N[C@@H](CCCCN)C(=O)N[C@@H](CCCCN)C(=O)N[C@@H](CCC(N)=O)C(=O)N[C@@H](CCCNC(=N)N)C(=O)N[C@@H](CCC(=O)O)C(=O)N[C@@H](CCC(N)=O)C(=O)N[C@@H](C)C(=O)N[C@@H](CCC(=O)O)C(=O)N[C@H](C(=O)N[C@@H](CC(N)=O)C(=O)N[C@@](C)(CCCCN)C(=O)N[C@@H](CCC(N)=O)C(=O)N[C@H](C(=O)N[C@@H](CC(C)C)C(=O)N[C@@H](C)C(=O)N[C@@H](CCC(N)=O)C(=O)N[C@H](C(N)=O)C(C)C)[C@@H](C)CC)[C@@H](C)O)[C@@H](C)CC)[C@@H](C)CC)C(C)C)C(C)C [compound 106] (Ac-IVLSLD[dV]PIKLK([AEEA-AEEA-γGlu-C18 diacid])KILLEQEKQKKQREQAETN[αMeK]QILAQV-NH2) | 6 % I | < 6.60 | 9.46
CC[C@H](C)[C@H](NC)C(=O)N[C@H](C(=O)N[C@@H](CC(C)C)C(=O)N[C@@H](CO)C(=O)N[C@@H](CC(C)C)C(=O)N[C@@H](CC(=O)O)C(=O)N[C@@H](C(=O)N1CCC[C@H]1C(=O)N[C@H](C(=O)N[C@@H](CCCCN)C(=O)N[C@@H](CC(C)C)C(=O)N[C@@H](CCCCNC(=O)CC[C@H](NC(=O)CCCCCCCCCCCCCCC(=O)O)C(=O)O)C(=O)N[C@@H](CCCCN)C(=O)N[C@H](C(=O)N[C@@H](CC(C)C)C(=O)N[C@@H](CC(C)C)C(=O)N[C@@H](CCC(=O)O)C(=O)N[C@@H](CCC(N)=O)C(=O)N[C@@H](CCC(=O)O)C(=O)N[C@@H](CCCCN)C(=O)N[C@@H](CCC(N)=O)C(=O)N[C@@H](CCCCN)C(=O)N[C@@H](C)C(=O)N[C@@H](CCC(N)=O)C(=O)N[C@@H](CCCNC(=N)N)C(=O)N[C@@H](CCC(=O)O)C(=O)N[C@@H](CCC(N)=O)C(=O)N[C@@H](C)C(=O)N[C@@H](CCC(=O)O)C(=O)N[C@H](C(=O)N[C@@H](CC(N)=O)C(=O)NC(C)(C)C(=O)N[C@@H](CCC(N)=O)C(=O)N[C@H](C(=O)N[C@@H](CC(C)C)C(=O)N[C@@H](C)C(=O)N[C@@H](CCC(N)=O)C(=O)N[C@H](C(N)=O)C(C)C)[C@@H](C)CC)[C@@H](C)O)[C@@H](C)CC)[C@@H](C)CC)C(C)C)C(C)C [compound 74] (H-[NMeI]VLSLD[dV]PIKLK([γGlu-C16 diacid])KILLEQEKQKAQREQAETN[Aib]QILAQV-NH2) | 7 % I | < 6.60 | 9.82
CC[C@H](C)[C@H](NC)C(=O)N[C@H](C(=O)N[C@@H](CC(C)C)C(=O)N[C@@H](CO)C(=O)N[C@@H](CC(C)C)C(=O)N[C@@H](CC(=O)O)C(=O)N[C@@H](C(=O)N1CCC[C@H]1C(=O)N[C@H](C(=O)N[C@@H](CCCCN)C(=O)N[C@@H](CC(C)C)C(=O)N[C@@H](CCCCNC(=O)CC[C@H](NC(=O)CCCCCCCCCCCCCCC(=O)O)C(=O)O)C(=O)N[C@@H](CCCCN)C(=O)N[C@H](C(=O)N[C@@H](CC(C)C)C(=O)N[C@@H](CC(C)C)C(=O)N[C@@H](CCC(=O)O)C(=O)N[C@@H](CCC(N)=O)C(=O)N[C@@H](CCC(=O)O)C(=O)N[C@@H](CCCCN)C(=O)N[C@@H](CCC(N)=O)C(=O)N[C@@H](CCCCN)C(=O)N[C@@H](CCCCN)C(=O)N[C@@H](CCC(N)=O)C(=O)N[C@@H](CCCNC(=N)N)C(=O)N[C@@H](CCC(=O)O)C(=O)N[C@@H](CCC(N)=O)C(=O)N[C@@H](C)C(=O)N[C@@H](CCC(=O)O)C(=O)N[C@H](C(=O)N[C@@H](CC(N)=O)C(=O)N[C@H](C(=O)N[C@@H](CCC(N)=O)C(=O)N[C@H](C(=O)N[C@@H](CC(C)C)C(=O)N[C@@H](C)C(=O)N[C@@H](CCC(N)=O)C(=O)N[C@H](C(N)=O)C(C)C)[C@@H](C)CC)C(C)C)[C@@H](C)O)[C@@H](C)CC)[C@@H](C)CC)C(C)C)C(C)C [compound 66] (H-[NMeI]VLSLD[dV]PIKLK([γGlu-C16 diacid])KILLEQEKQKKQREQAETNVQILAQV-NH2) | 4 % I | < 6.60 | 8.98
CC[C@H](C)[C@H](NC(=O)[C@H](CCC(N)=O)NC(=O)[C@H](C)NC(=O)[C@H](CC(N)=O)NC(=O)[C@@H](NC(=O)[C@H](CCC(=O)O)NC(=O)[C@H](C)NC(=O)[C@H](CCC(N)=O)NC(=O)[C@H](CCC(=O)O)NC(=O)[C@H](CCCNC(=N)N)NC(=O)[C@H](CCC(N)=O)NC(=O)[C@H](CCCCN)NC(=O)[C@H](CCCCN)NC(=O)[C@H](CCC(N)=O)NC(=O)[C@H](CCCCN)NC(=O)[C@H](CCC(=O)O)NC(=O)[C@H](CCC(N)=O)NC(=O)[C@H](CCC(=O)O)NC(=O)[C@H](CC(C)C)NC(=O)[C@H](CC(C)C)NC(=O)[C@@H](NC(=O)[C@H](CCCCN)NC(=O)[C@H](CCCCNC(=O)COCCOCCNC(=O)COCCOCCNC(=O)CC[C@H](NC(=O)CCCCCCCCCCCCCCCCC(=O)O)C(=O)O)NC(=O)[C@H](CC(C)C)NC(=O)[C@H](CCCCN)NC(=O)[C@@H](NC(=O)[C@@H]1CCCN1C(=O)[C@H](NC(=O)[C@H](CC(=O)O)NC(=O)[C@H](CC(C)C)NC(=O)[C@H](CO)NC(=O)[C@H](CC(C)C)NC(=O)[C@@H](NC(C)=O)C(C)C)C(C)C)[C@@H](C)CC)[C@@H](C)CC)[C@@H](C)O)C(=O)N[C@@H](CC(C)C)C(=O)N[C@@H](C)C(=O)N[C@@H](CCC(N)=O)C(=O)N[C@H](C(N)=O)C(C)C [compound 101] (Ac-VLSLD[dV]PIKLK([AEEA-AEEA-γGlu-C18 diacid])KILLEQEKQKKQREQAETNAQILAQV-NH2) | 0 % I | < 6.60 | 8.76
CCCCC(=O)N[C@H](C(=O)N[C@@H](CC(C)C)C(=O)N[C@@H](CO)C(=O)N[C@@H](CC(C)C)C(=O)N[C@@H](CC(=O)O)C(=O)N[C@@H](C(=O)N1CCC[C@H]1C(=O)N[C@H](C(=O)N[C@@H](CCCCN)C(=O)N[C@@H](CC(C)C)C(=O)N[C@@H](CCCCNC(=O)COCCOCCNC(=O)COCCOCCNC(=O)CC[C@H](NC(=O)CCCCCCCCCCCCC(=O)O)C(=O)O)C(=O)N[C@@H](CCCCN)C(=O)N[C@H](C(=O)N[C@@H](CC(C)C)C(=O)N[C@@H](CC(C)C)C(=O)N[C@@H](CCC(=O)O)C(=O)N[C@@H](CCC(N)=O)C(=O)N[C@@H](CCC(=O)O)C(=O)N[C@@H](CCCCN)C(=O)N[C@@H](CCC(N)=O)C(=O)N[C@@H](CCCCN)C(=O)N[C@@H](CCCCN)C(=O)N[C@@H](CCC(N)=O)C(=O)N[C@@H](CCCNC(=N)N)C(=O)N[C@@H](CCC(=O)O)C(=O)N[C@@H](CCC(N)=O)C(=O)N[C@@H](C)C(=O)N[C@@H](CCC(=O)O)C(=O)N[C@H](C(=O)N[C@@H](CC(N)=O)C(=O)NC(C)(C)C(=O)N[C@@H](CCC(N)=O)C(=O)N[C@H](C(=O)N[C@@H](CC(C)C)C(=O)N[C@@H](C)C(=O)N[C@@H](CCC(N)=O)C(=O)N[C@H](C(N)=O)C(C)C)[C@@H](C)CC)[C@@H](C)O)[C@@H](C)CC)[C@@H](C)CC)C(C)C)C(C)C [compound 180] (Pentanoyl-VLSLD[dV]PIKLK([AEEA-AEEA-γGlu-C14 diacid])KILLEQEKQKKQREQAETN[Aib]QILAQV-NH2) | 2 % I | < 6.60 | 7.97
